Assay results reported in patent publication US20240293413A1, “COMPOUND AND METHOD FOR TREATING CHEMOTHERAPY-RELATED GASTROINTESTINAL SIDE EFFECTS” (ONQUALITY PHARMACEUTICALS CHINA LTD., priority 2021, published 2024).

How the values were obtained:
Type in all cases: in vivo
[1] = test system: Chemotherapeutic agent-caused constipation models of Balb/c mice; test: Examples 272-342 (Table 5): oral CDK inhibitor, relief of constipation caused by a chemotherapeutic agent; conditions: CDK inhibitor oral 150 mg/kg single;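 further: percent of treated mice relieved versus chemotherapy group by feces reduction rate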
How it was run: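 Balb/c mice, 10 per group: control, chemotherapeutic agent alone, or intragastric CDK inhibitor followed by the chemotherapeutic agent. Feces produced within 3 hours were recorded daily, and feces reduction rate (%) was calculated relative to the control group.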

[2] = test system: diarrhea caused by a chemotherapeutic agent in Balb/c mice; test: Examples 343-381 (Table 6): oral versus intravenous CDK inhibitor, relief of diarrhea caused by a chemotherapeutic agent;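 further: percent of treated mice whose diarrhea grade fell below chemotherapy-group average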
How it was run: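 Balb/c mice (10 per group) received the CDK inhibitor orally or by tail-vein injection, or vehicle, followed by a chemotherapeutic agent or its solvent. Diarrhea grade was scored daily.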

[3] = test system: constipation caused by a chemotherapeutic agent in Balb/c mice; test: Examples 406-443 (Table 8): various administration modes of the CDK inhibitor, relief of constipation caused by a chemotherapeutic agent;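 further: percent of treated mice relieved versus chemotherapy group by feces reduction rate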
Excerpt: Balb/c mice were fed for 1 week, and then divided into groups. The experiment was divided into a control group, a chemotherapeutic agent group, CDK inhibitor groups (including an oral administration group of a CDK inhibitor, an intravenous injection group of a CDK inhibitor, an intraperitoneal injection group of a CDK inhibitor, an intramuscular injection group of a CDK inhibitor, a local administration group of a CDK inhibitor), each of which comprised 10 mice, to perform the administration experiment, for which the administration dosage, mode, time and frequency were shown in Table 8. The control group: being administered with the same solvent as that used in the CDK inhibitor group (the time and mode were shown in Table 8), and then being injected/intragastrically administered with the same solvent as that used in the chemotherapeutic agent group (the administration mode was shown in Table 8): the chemotherapeutic agent group: being administered with the same solvent as that used in the CDK inhibitor group (the time and mode were shown in Table 8), and then being injected/intragastrically administered with the chemotherapeutic agent (the type, administration mode and dosage were shown in Table 8): the oral administration group of the CDK inhibitor: being intragastrically administered with the CDK inhibitor (the time was shown in Table 8), and then being administered with the chemotherapeutic agent (the mode and dosage were shown in Table 8): the intravenous injection group of the CDK inhibitor: being injected with the CDK inhibitor through tail vein (the time was shown in Table 8), and then being administered with the chemotherapeutic agent (the mode and dosage were shown in Table 8): the intraperitoneal injection group of the CDK inhibitor: being intraperitoneally injected with the CDK inhibitor (the time was shown in Table 8), and then being administered with the chemotherapeutic agent (the mode and dosage were shown in Table 8): the intramuscular injection group of the CDK inhibitor: being intramuscularly injected with the CDK inhibitor (the time was shown in Table 8), and then being administered with the chemotherapeutic agent (the mode and dosage were shown in Table 8); and the local administration group of the CDK inhibitor: the hair on the abdomen of mice was shaved (about 2 cm*2 cm), being applied with the CDK inhibitor (the time was shown in Table 8), and then being administered with the chemotherapeutic agent (the mode and dosage were shown in Table 8).
Feces reduction rate (%)=(the control group−the chemotherapeutic agent group or the CDK inhibitor group)/the control group*100%
The feces amount of mice within 3 hours was observed and recorded every day.

CC(=O)c1c(C)c2cnc(Nc3ccc(N4CCNCC4)cn3)nc2n(C2CCCC2)c1=O [Palbociclib]
Relative remission rate ([1]; Example 293, Fluorouracil (5-Fu) oral administration 300 mg/kg single, 8 h before, cycle 7 days): 50%
Relative remission rate ([1]; Example 304, Irinotecan (CPT-11) intraperitoneal injection 260 mg/kg single, 0.5 h before, cycle 7 days): 40%
Relative remission rate ([1]; Example 305, Irinotecan (CPT-11) intraperitoneal injection 260 mg/kg single, 4 h before, cycle 7 days): 60%
Relative remission rate ([1]; Example 306, Irinotecan (CPT-11) intraperitoneal injection 260 mg/kg single, 8 h before, cycle 7 days): 80%
Relative remission rate ([1]; Example 307, Irinotecan (CPT-11) intraperitoneal injection 260 mg/kg single, 12 h before, cycle 7 days): 70%
Relative remission rate ([1]; Example 308, Irinotecan (CPT-11) intraperitoneal injection 260 mg/kg single, 24 h before, cycle 7 days): 30%
Relative remission rate ([1]; Example 309, Irinotecan (CPT-11) intraperitoneal injection 260 mg/kg single, 48 h before, cycle 7 days): 0%
Relative remission rate ([1]; Example 333, Cytarabine (Ara-C) intravenous injection 600 mg/kg single, 6 h before, cycle 8 days): 50%
Relative remission rate ([2]; Example 343, Etoposide intravenous injection 75 mg/kg single, CDK inhibitor intravenous injection 150 mg/kg single, 0.5 h before chemotherapeutic agent, cycle 8 days): 10%
Relative remission rate ([2]; Example 343, Etoposide intravenous injection 75 mg/kg single, CDK inhibitor oral 150 mg/kg single, 0.5 h before chemotherapeutic agent, cycle 8 days): 40%
Relative remission rate ([2]; Example 344, Etoposide intravenous injection 75 mg/kg single, CDK inhibitor intravenous injection 150 mg/kg single, 4 h before, cycle 8 days): 10%
Relative remission rate ([2]; Example 344, Etoposide intravenous injection 75 mg/kg single, CDK inhibitor oral 150 mg/kg single, 4 h before, cycle 8 days): 80%
Relative remission rate ([2]; Example 345, Etoposide intravenous injection 75 mg/kg single, CDK inhibitor intravenous injection 150 mg/kg single, 8 h before, cycle 8 days): 10%
Relative remission rate ([2]; Example 345, Etoposide intravenous injection 75 mg/kg single, CDK inhibitor oral 150 mg/kg single, 8 h before, cycle 8 days): 60%
Relative remission rate ([2]; Example 346, Etoposide intravenous injection 75 mg/kg single, CDK inhibitor intravenous injection 150 mg/kg single, 12 h before, cycle 8 days): 20%
Relative remission rate ([2]; Example 346, Etoposide intravenous injection 75 mg/kg single, CDK inhibitor oral 150 mg/kg single, 12 h before, cycle 8 days): 60%
Relative remission rate ([2]; Example 347, Etoposide intravenous injection 75 mg/kg single, CDK inhibitor intravenous injection 150 mg/kg single, 24 h before, cycle 8 days): 10%
Relative remission rate ([2]; Example 347, Etoposide intravenous injection 75 mg/kg single, CDK inhibitor oral 150 mg/kg single, 24 h before, cycle 8 days): 60%
Relative remission rate ([2]; Example 357, Etoposide and cisplatin intravenous injection 50 (E) 5 (Cis) mg/kg single, CDK inhibitor intravenous injection 125 mg/kg single, 4 h before, cycle 7 days): 20%
Relative remission rate ([2]; Example 357, Etoposide and cisplatin intravenous injection 50 (E) 5 (Cis) mg/kg single, CDK inhibitor oral 125 mg/kg single, 4 h before, cycle 7 days): 70%
Relative remission rate ([2]; Example 358, Etoposide and cisplatin intravenous injection 50 (E) 5 (Cis) mg/kg single, CDK inhibitor intravenous injection 125 mg/kg single, 24 h before, cycle 7 days): 10%
Relative remission rate ([2]; Example 358, Etoposide and cisplatin intravenous injection 50 (E) 5 (Cis) mg/kg single, CDK inhibitor oral 125 mg/kg single, 24 h before, cycle 7 days): 40%
Relative remission rate ([2]; Example 366, Carboplatin (CBP) oral administration 200 mg/kg single, CDK inhibitor intravenous injection 150 mg/kg single, 24 h before, cycle 10 days): 10%
Relative remission rate ([2]; Example 366, Carboplatin (CBP) oral administration 200 mg/kg single, CDK inhibitor oral 150 mg/kg single, 24 h before, cycle 10 days): 50%
Relative remission rate ([2]; Example 378, Gemcitabine (GEM) intravenous injection 120 mg/kg single, CDK inhibitor intravenous injection 200 mg/kg single, 12 h before, cycle 8 days): 10%
Relative remission rate ([2]; Example 378, Gemcitabine (GEM) intravenous injection 120 mg/kg single, CDK inhibitor oral 200 mg/kg single, 12 h before, cycle 8 days): 50%
Relative remission rate ([2]; Example 379, Gemcitabine (GEM) intravenous injection 120 mg/kg single, CDK inhibitor intravenous injection 200 mg/kg single, 12 h before, cycle 8 days): 20%
Relative remission rate ([2]; Example 379, Gemcitabine (GEM) intravenous injection 120 mg/kg single, CDK inhibitor oral 200 mg/kg single, 12 h before, cycle 8 days): 60%
Relative remission rate of other administration mode ([3]; Example 406, Doxorubicin (Dox) intraperitoneal injection 12 mg/kg single, CDK inhibitor intravenous injection 150 mg/kg single, 0.5 h before, cycle 8 days): 10%
Relative remission rate of oral administration ([3]; Example 406, Doxorubicin (Dox) intraperitoneal injection 12 mg/kg single, CDK inhibitor oral 150 mg/kg single, 0.5 h before, cycle 8 days): 20%
Relative remission rate of other administration mode ([3]; Example 407, Doxorubicin (Dox) intraperitoneal injection 12 mg/kg single, CDK inhibitor intravenous injection 150 mg/kg single, 4 h before, cycle 8 days): 10%
Relative remission rate of oral administration ([3]; Example 407, Doxorubicin (Dox) intraperitoneal injection 12 mg/kg single, CDK inhibitor oral 150 mg/kg single, 4 h before, cycle 8 days): 30%
Relative remission rate of other administration mode ([3]; Example 408, Doxorubicin (Dox) intraperitoneal injection 12 mg/kg single, CDK inhibitor intravenous injection 150 mg/kg single, 8 h before, cycle 8 days): 10%
Relative remission rate of oral administration ([3]; Example 408, Doxorubicin (Dox) intraperitoneal injection 12 mg/kg single, CDK inhibitor oral 150 mg/kg single, 8 h before, cycle 8 days): 30%
Relative remission rate of other administration mode ([3]; Example 409, Doxorubicin (Dox) intraperitoneal injection 12 mg/kg single, CDK inhibitor intravenous injection 150 mg/kg single, 12 h before, cycle 8 days): 20%
Relative remission rate of oral administration ([3]; Example 409, Doxorubicin (Dox) intraperitoneal injection 12 mg/kg single, CDK inhibitor oral 150 mg/kg single, 12 h before, cycle 8 days): 50%
Relative remission rate of other administration mode ([3]; Example 410, Doxorubicin (Dox) intraperitoneal injection 12 mg/kg single, CDK inhibitor intravenous injection 150 mg/kg single, 24 h before, cycle 8 days): 20%
Relative remission rate of oral administration ([3]; Example 410, Doxorubicin (Dox) intraperitoneal injection 12 mg/kg single, CDK inhibitor oral 150 mg/kg single, 24 h before, cycle 8 days): 40%
Relative remission rate of other administration mode ([3]; Example 415, Etoposide (Etop1) intraperitoneal injection 100 mg/kg single, CDK inhibitor intravenous injection 150 mg/kg single, 0.5 h before, cycle 8 days): 10%
Relative remission rate of oral administration ([3]; Example 415, Etoposide (Etop1) intraperitoneal injection 100 mg/kg single, CDK inhibitor oral 150 mg/kg single, 0.5 h before, cycle 8 days): 20%
Relative remission rate of other administration mode ([3]; Example 416, Etoposide (Etop1) intraperitoneal injection 100 mg/kg single, CDK inhibitor intravenous injection 150 mg/kg single, 4 h before, cycle 8 days): 20%
Relative remission rate of oral administration ([3]; Example 416, Etoposide (Etop1) intraperitoneal injection 100 mg/kg single, CDK inhibitor oral 150 mg/kg single, 4 h before, cycle 8 days): 40%
Relative remission rate of other administration mode ([3]; Example 417, Etoposide (Etop1) intraperitoneal injection 100 mg/kg single, CDK inhibitor intravenous injection 150 mg/kg single, 8 h before, cycle 8 days): 20%
Relative remission rate of oral administration ([3]; Example 417, Etoposide (Etop1) intraperitoneal injection 100 mg/kg single, CDK inhibitor oral 150 mg/kg single, 8 h before, cycle 8 days): 40%
Relative remission rate of other administration mode ([3]; Example 418, Etoposide (Etop1) intraperitoneal injection 100 mg/kg single, CDK inhibitor intravenous injection 150 mg/kg single, 12 h before, cycle 8 days): 10%
Relative remission rate of oral administration ([3]; Example 418, Etoposide (Etop1) intraperitoneal injection 100 mg/kg single, CDK inhibitor oral 150 mg/kg single, 12 h before, cycle 8 days): 30%
Relative remission rate of other administration mode ([3]; Example 419, Etoposide (Etop1) intraperitoneal injection 100 mg/kg single, CDK inhibitor intravenous injection 150 mg/kg single, 24 h before, cycle 8 days): 10%
Relative remission rate of oral administration ([3]; Example 419, Etoposide (Etop1) intraperitoneal injection 100 mg/kg single, CDK inhibitor oral 150 mg/kg single, 24 h before, cycle 8 days): 30%
Relative remission rate of other administration mode ([3]; Example 422, Etoposide and cisplatin intravenous injection 50 and 5 mg/kg single, CDK inhibitor intravenous injection 150 mg/kg single, 0.5 h before, cycle 7 days): 10%
Relative remission rate of oral administration ([3]; Example 422, Etoposide and cisplatin intravenous injection 50 and 5 mg/kg single, CDK inhibitor oral 150 mg/kg single, 0.5 h before, cycle 7 days): 40%
Relative remission rate of other administration mode ([3]; Example 423, Etoposide and cisplatin intravenous injection 50 and 5 mg/kg single, CDK inhibitor intravenous injection 150 mg/kg single, 24 h before, cycle 7 days): 20%
Relative remission rate of oral administration ([3]; Example 423, Etoposide and cisplatin intravenous injection 50 and 5 mg/kg single, CDK inhibitor oral 150 mg/kg single, 24 h before, cycle 7 days): 60%
Relative remission rate of other administration mode ([3]; Example 437, Gemcitabine intravenous injection 120 mg/kg single, CDK inhibitor intravenous injection 200 mg/kg single, 12 h before, cycle 8 days): 20%
Relative remission rate of oral administration ([3]; Example 437, Gemcitabine intravenous injection 120 mg/kg single, CDK inhibitor oral 200 mg/kg single, 12 h before, cycle 8 days): 50%
